Test results from patent US10131652B2, “Pyrimidinyloxy benzene derivatives as herbicides” (E. I. DU PONT DE NEMOURS AND COMPANY, priority 2014, dated 2018).

Legend:
Assay type in all cases: in vivo
[1] = system: blackgrass (Alopecurus myosuroides); assay: Test B postemergence plant response
Procedure, shortened: (§1)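 Visual injury ratings, 0 = no effect to 100 = complete control, versus untreated controls approximately 10 days after postemergence spraying in greenhouse. Plants were at one- to two-leaf stage, 2 to 10 cm tall, in loam soil/sand blend; a dash denotes no result.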

[2] = system: galium (catchweed bedstraw, Galium aparine); assay: Test B postemergence plant response
Procedure, shortened: as §1

[3] = system: ducksalad (Heteranthera limosa); assay: Test C flooded paddy test plant response; conditions: Flood, 250 g ai/ha; scale of 0 to 100 where 0 is no effect and 100 is complete control; 13 to 15 days
Procedure, shortened: (§2)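 2-leaf plants; flood 3 cm, cpd into paddy water; greenhouse 13–15 d; visual score vs untreated, 0 = no effect, 100 = complete control; dash = no result.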

[4] = system: small-flower umbrella sedge (Cyperus difformis); assay: Test C flooded paddy test plant response; conditions: Flood, 250 g ai/ha; scale of 0 to 100 where 0 is no effect and 100 is complete control; 13 to 15 days
Procedure, shortened: as §2

[5] = system: rice (Oryza sativa); assay: Test C flooded paddy test plant response; conditions: Flood, 250 g ai/ha; scale of 0 to 100 where 0 is no effect and 100 is complete control; 13 to 15 days
Procedure, shortened: as §2

[6] = system: barnyardgrass (Echinochloa crus-galli); assay: Test C flooded paddy test plant response; conditions: Flood, 250 g ai/ha; scale of 0 to 100 where 0 is no effect and 100 is complete control; 13 to 15 days
Procedure, shortened: as §2

[7] = system: giant foxtail (Setaria faberii); assay: Test B pre-/postemergence plant response
Procedure, shortened: (§3)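 Visual injury scores on a 0–100 scale (100 = complete control) relative to untreated plants, taken about 10 days post-treatment in greenhouse. Treatments were a directed preemergence soil spray and a postemergence spray at one- to two-leaf stage, using surfactant-containing solvent formulation.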

[8] = system: ragweed (common ragweed, Ambrosia elatior); assay: Test B pre-/postemergence plant response
Procedure, shortened: as §3

[9] = system: Italian ryegrass (Lolium multiflorum); assay: Test B pre-/postemergence plant response
Procedure, shortened: as §3

[10] = system: pigweed (Amaranthus retroflexus); assay: Test B pre-/postemergence plant response
Procedure, shortened: as §3

[11] = system: corn (Zea mays); assay: Test B pre-/postemergence plant response
Procedure, shortened: as §3

[12] = system: barnyardgrass (Echinochloa crus-galli); assay: Test B pre-/postemergence plant response
Procedure, shortened: as §3

[13] = system: kochia (Kochia scoparia); assay: Test B pre-/postemergence plant response
Procedure, shortened: as §3

[14] = system: wheat (Triticum aestivum); assay: Test B pre-/postemergence plant response
Procedure, shortened: as §3

[15] = 125 g ai/ha, postemergence, 0 to 100 scale, 0 no effect, 100 complete control
[16] = Postemergence, 31 g ai/ha, 0 to 100 scale (0 no effect, 100 complete control)
[17] = 31 g ai/ha, Preemergence, 0 to 100 scale where 0 is no effect and 100 is complete control
[18] = Preemergence, 125 g ai/ha, 0 to 100 scale (0 no effect, 100 complete control)

Structure (SMILES): Brc1cnc(Oc2ccccc2-c2ccsc2)nc1 [Compound 232]
- Plant response rating, Blackgrass [1, 15]: 0
- Plant response rating, Blackgrass [1, 16]: 0
- Plant response rating, Galium [2, 15]: 0
- Plant response rating, Galium [2, 16]: 0
- Ducksalad plant response rating [3]: 0
- Sedge, Umbrella plant response rating [4]: 0
- Rice plant response rating [5]: 0
- Barnyardgrass plant response rating [6]: 0
- Plant response rating, Foxtail, Giant [7, 17]: 0
- Plant response rating, Foxtail, Giant [7, 15]: 0
- Plant response rating, Foxtail, Giant [7, 16]: 0
- Foxtail, Giant plant response rating [7, 18]: 10
- Plant response rating, Ragweed [8, 17]: 0
- Plant response rating, Ragweed [8, 15]: 0
- Plant response rating, Ragweed [8, 16]: 0
- Ragweed plant response rating [8, 18]: 0
- Plant response rating, Ryegrass, Italian [9, 17]: 0
- Plant response rating, Ryegrass, Italian [9, 15]: 0
- Plant response rating, Ryegrass, Italian [9, 16]: 0
- Ryegrass, Italian plant response rating [9, 18]: 0
- Plant response rating, Pigweed [10, 17]: 20
- Plant response rating, Pigweed [10, 15]: 40
- Plant response rating, Pigweed [10, 16]: 10
- Pigweed plant response rating [10, 18]: 30
- Plant response rating, Corn [11, 15]: 0
- Plant response rating, Corn [11, 16]: 0
- Plant response rating, Barnyardgrass [12, 17]: 0
- Plant response rating, Barnyardgrass [12, 15]: 0
- Plant response rating, Barnyardgrass [12, 16]: 0
- Barnyardgrass plant response rating [12, 18]: 20
- Plant response rating, Kochia [13, 17]: 0
- Plant response rating, Kochia [13, 15]: 0
- Plant response rating, Kochia [13, 16]: 0
- Kochia plant response rating [13, 18]: 0
- Plant response rating, Wheat [14, 15]: 0
- Plant response rating, Wheat [14, 16]: 0

Structure (SMILES): Clc1cnc(Oc2ccccc2-c2ccns2)nc1 [Compound 233]
- Plant response rating, Blackgrass [1, 15]: 10
- Plant response rating, Blackgrass [1, 16]: 0
- Plant response rating, Galium [2, 15]: 0
- Plant response rating, Galium [2, 16]: 0
- Ducksalad plant response rating [3]: 0
- Sedge, Umbrella plant response rating [4]: 0
- Rice plant response rating [5]: 0
- Barnyardgrass plant response rating [6]: 0
- Plant response rating, Foxtail, Giant [7, 17]: 0
- Plant response rating, Foxtail, Giant [7, 15]: 0
- Plant response rating, Foxtail, Giant [7, 16]: 0
- Foxtail, Giant plant response rating [7, 18]: 0
- Plant response rating, Ragweed [8, 17]: 0
- Plant response rating, Ragweed [8, 15]: 0
- Plant response rating, Ragweed [8, 16]: 0
- Ragweed plant response rating [8, 18]: 0
- Plant response rating, Ryegrass, Italian [9, 17]: 0
- Plant response rating, Ryegrass, Italian [9, 15]: 0
- Plant response rating, Ryegrass, Italian [9, 16]: 0
- Ryegrass, Italian plant response rating [9, 18]: 0
- Plant response rating, Pigweed [10, 17]: 0
- Plant response rating, Pigweed [10, 15]: 20
- Plant response rating, Pigweed [10, 16]: 0
- Pigweed plant response rating [10, 18]: 0
- Plant response rating, Corn [11, 15]: 10
- Plant response rating, Corn [11, 16]: 0
- Plant response rating, Barnyardgrass [12, 17]: 0
- Plant response rating, Barnyardgrass [12, 15]: 10
- Plant response rating, Barnyardgrass [12, 16]: 0
- Barnyardgrass plant response rating [12, 18]: 0
- Plant response rating, Kochia [13, 17]: 0
- Plant response rating, Kochia [13, 15]: 0
- Plant response rating, Kochia [13, 16]: 0
- Kochia plant response rating [13, 18]: 0
- Plant response rating, Wheat [14, 15]: 0
- Plant response rating, Wheat [14, 16]: 0

Structure (SMILES): Brc1cnc(Oc2ccccc2-c2ccns2)nc1 [Compound 234]
- Plant response rating, Blackgrass [1, 15]: 10
- Plant response rating, Blackgrass [1, 16]: 0
- Plant response rating, Galium [2, 15]: 0
- Plant response rating, Galium [2, 16]: 0
- Ducksalad plant response rating [3]: 0
- Sedge, Umbrella plant response rating [4]: 0
- Rice plant response rating [5]: 0
- Barnyardgrass plant response rating [6]: 0
- Plant response rating, Foxtail, Giant [7, 17]: 0
- Plant response rating, Foxtail, Giant [7, 15]: 0
- Plant response rating, Foxtail, Giant [7, 16]: 0
- Foxtail, Giant plant response rating [7, 18]: 0
- Plant response rating, Ragweed [8, 17]: 0
- Plant response rating, Ragweed [8, 15]: 10
- Plant response rating, Ragweed [8, 16]: 0
- Plant response rating, Ryegrass, Italian [9, 17]: 0
- Plant response rating, Ryegrass, Italian [9, 15]: 0
- Plant response rating, Ryegrass, Italian [9, 16]: 0
- Ryegrass, Italian plant response rating [9, 18]: 0
- Plant response rating, Pigweed [10, 17]: 0
- Plant response rating, Pigweed [10, 15]: 20
- Plant response rating, Pigweed [10, 16]: 0
- Pigweed plant response rating [10, 18]: 0
- Plant response rating, Corn [11, 15]: 10
- Plant response rating, Corn [11, 16]: 0
- Plant response rating, Barnyardgrass [12, 17]: 0
- Plant response rating, Barnyardgrass [12, 15]: 0
- Plant response rating, Barnyardgrass [12, 16]: 0
- Barnyardgrass plant response rating [12, 18]: 0
- Plant response rating, Kochia [13, 17]: 0
- Plant response rating, Kochia [13, 15]: 0
- Plant response rating, Kochia [13, 16]: 0
- Kochia plant response rating [13, 18]: 0
- Plant response rating, Wheat [14, 15]: 0
- Plant response rating, Wheat [14, 16]: 0

Structure (SMILES): CC(C)(F)c1cc(-c2ccccc2Oc2ncc(Cl)cn2)no1 [Compound 236]
- Plant response rating, Blackgrass [1, 15]: 40
- Plant response rating, Blackgrass [1, 16]: 20
- Plant response rating, Galium [2, 15]: 100
- Plant response rating, Galium [2, 16]: 30
- Ducksalad plant response rating [3]: 75
- Sedge, Umbrella plant response rating [4]: 40
- Rice plant response rating [5]: 0
- Barnyardgrass plant response rating [6]: 0
- Plant response rating, Foxtail, Giant [7, 17]: 10
- Plant response rating, Foxtail, Giant [7, 15]: 30
- Plant response rating, Foxtail, Giant [7, 16]: 0
- Foxtail, Giant plant response rating [7, 18]: 90
- Plant response rating, Ragweed [8, 17]: 0
- Plant response rating, Ragweed [8, 15]: 20
- Plant response rating, Ragweed [8, 16]: 0
- Ragweed plant response rating [8, 18]: 0
- Plant response rating, Ryegrass, Italian [9, 17]: 0
- Plant response rating, Ryegrass, Italian [9, 15]: 20
- Plant response rating, Ryegrass, Italian [9, 16]: 0
- Ryegrass, Italian plant response rating [9, 18]: 30
- Plant response rating, Pigweed [10, 17]: 60
- Plant response rating, Pigweed [10, 15]: 70
- Plant response rating, Pigweed [10, 16]: 30
- Pigweed plant response rating [10, 18]: 100
- Plant response rating, Corn [11, 15]: 30
- Plant response rating, Corn [11, 16]: 0
- Plant response rating, Barnyardgrass [12, 17]: 10
- Plant response rating, Barnyardgrass [12, 15]: 30
- Plant response rating, Barnyardgrass [12, 16]: 0
- Barnyardgrass plant response rating [12, 18]: 80
- Plant response rating, Kochia [13, 17]: 30
- Plant response rating, Kochia [13, 15]: 90
- Plant response rating, Kochia [13, 16]: 20
- Kochia plant response rating [13, 18]: 100
- Plant response rating, Wheat [14, 15]: 20
- Plant response rating, Wheat [14, 16]: 0

Structure (SMILES): Cn1nc(-c2ccccc2Oc2ncc(Cl)cn2)cc1C(F)(F)F [Compound 237]
- Plant response rating, Blackgrass [1, 15]: 0
- Plant response rating, Blackgrass [1, 16]: 0
- Plant response rating, Galium [2, 15]: 0
- Plant response rating, Galium [2, 16]: 0
- Ducksalad plant response rating [3]: 0
- Sedge, Umbrella plant response rating [4]: 0
- Rice plant response rating [5]: 0
- Barnyardgrass plant response rating [6]: 0
- Plant response rating, Foxtail, Giant [7, 17]: 0
- Plant response rating, Foxtail, Giant [7, 15]: 0
- Plant response rating, Foxtail, Giant [7, 16]: 0
- Foxtail, Giant plant response rating [7, 18]: 0
- Plant response rating, Ragweed [8, 17]: 0
- Plant response rating, Ragweed [8, 15]: 0
- Plant response rating, Ragweed [8, 16]: 0
- Ragweed plant response rating [8, 18]: 0
- Plant response rating, Ryegrass, Italian [9, 17]: 0
- Plant response rating, Ryegrass, Italian [9, 15]: 0
- Plant response rating, Ryegrass, Italian [9, 16]: 0
- Ryegrass, Italian plant response rating [9, 18]: 0
- Plant response rating, Pigweed [10, 17]: 0
- Plant response rating, Pigweed [10, 15]: 0
- Plant response rating, Pigweed [10, 16]: 0
- Pigweed plant response rating [10, 18]: 0
- Plant response rating, Corn [11, 15]: 0
- Plant response rating, Corn [11, 16]: 0
- Plant response rating, Barnyardgrass [12, 17]: 0
- Plant response rating, Barnyardgrass [12, 15]: 0
- Plant response rating, Barnyardgrass [12, 16]: 0
- Barnyardgrass plant response rating [12, 18]: 0
- Plant response rating, Kochia [13, 17]: 0
- Plant response rating, Kochia [13, 15]: 0
- Plant response rating, Kochia [13, 16]: 0
- Kochia plant response rating [13, 18]: 0
- Plant response rating, Wheat [14, 15]: 0
- Plant response rating, Wheat [14, 16]: 0

Structure (SMILES): Cc1csc(-c2c(C#N)cccc2Oc2ncc(Cl)cn2)c1 [Compound 238]
- Plant response rating, Blackgrass [1, 15]: 0
- Plant response rating, Blackgrass [1, 16]: 0
- Plant response rating, Galium [2, 15]: 40
- Plant response rating, Galium [2, 16]: 0
- Ducksalad plant response rating [3]: 45
- Sedge, Umbrella plant response rating [4]: 65
- Rice plant response rating [5]: 15
- Barnyardgrass plant response rating [6]: 20
- Plant response rating, Foxtail, Giant [7, 17]: 0
- Plant response rating, Foxtail, Giant [7, 15]: 10
- Plant response rating, Foxtail, Giant [7, 16]: 0
- Foxtail, Giant plant response rating [7, 18]: 20
- Plant response rating, Ragweed [8, 17]: 0
- Plant response rating, Ragweed [8, 15]: 0
- Plant response rating, Ragweed [8, 16]: 0
- Ragweed plant response rating [8, 18]: 0
- Plant response rating, Ryegrass, Italian [9, 17]: 0
- Plant response rating, Ryegrass, Italian [9, 15]: 0
- Plant response rating, Ryegrass, Italian [9, 16]: 0
- Ryegrass, Italian plant response rating [9, 18]: 0
- Plant response rating, Pigweed [10, 17]: 0
- Plant response rating, Pigweed [10, 15]: 20
- Plant response rating, Pigweed [10, 16]: 10
- Pigweed plant response rating [10, 18]: 10
- Plant response rating, Corn [11, 15]: 20
- Plant response rating, Corn [11, 16]: 0
- Plant response rating, Barnyardgrass [12, 17]: 0
- Plant response rating, Barnyardgrass [12, 15]: 30
- Plant response rating, Barnyardgrass [12, 16]: 0
- Barnyardgrass plant response rating [12, 18]: 40
- Plant response rating, Kochia [13, 17]: 0
- Plant response rating, Kochia [13, 15]: 80
- Plant response rating, Kochia [13, 16]: 20
- Kochia plant response rating [13, 18]: 0
- Plant response rating, Wheat [14, 15]: 0
- Plant response rating, Wheat [14, 16]: 0
